Reference: the supplement of paper PMC10307832

How the values were obtained:
Assay in all cases: relative viability (nuclei count vs DMSO), 5 days (fraction); higher = more cells survive
Wnt-C59 + OSI-027 = compound: CC1=NC=CC(=C1)C2=CC=C(C=C2)CC(=O)NC3=CC=C(C=C3)C4=CN=CC=C4 [Wnt-C59] + COc1cccc2cc(-c3nc([C@H]4CC[C@H](C(=O)O)CC4)n4ncnc(N)c34)[nH]c12 [OSI-027] (partner 0.5 µM)
Outline: (§1)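 Five library-drug doses in √10 steps were combined with a fixed anchor-drug dose, or a single drug was given alone, by pin tool to lung cancer cell lines in 1536-well plates the day after seeding. Nuclei were stained and counted after 5 days. Relative viability is the nuclei count in treated wells over that in vehicle wells, taken as the median of duplicate plates.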

Lapatinib + Palbociclib = compound: CS(=O)(=O)CCNCc1ccc(-c2ccc3ncnc(Nc4ccc(OCc5cccc(F)c5)c(Cl)c4)c3c2)o1 [Lapatinib] + CC(=O)c1c(C)c2cnc(Nc3ccc(N4CCNCC4)cn3)nc2n(C2CCCC2)c1=O [Palbociclib] (partner 0.5 µM)
Outline: as §1

Wnt-C59 + Linsitinib = compound: CC1=NC=CC(=C1)C2=CC=C(C=C2)CC(=O)NC3=CC=C(C=C3)C4=CN=CC=C4 [Wnt-C59] + C[C@]1(O)C[C@@H](c2nc(-c3ccc4ccc(-c5ccccc5)nc4c3)c3c(N)nccn32)C1 [Linsitinib] (partner 1 µM)
Outline: as §1

Lapatinib + Linsitinib = compound: CS(=O)(=O)CCNCc1ccc(-c2ccc3ncnc(Nc4ccc(OCc5cccc(F)c5)c(Cl)c4)c3c2)o1 [Lapatinib] + C[C@]1(O)C[C@@H](c2nc(-c3ccc4ccc(-c5ccccc5)nc4c3)c3c(N)nccn32)C1 [Linsitinib] (partner 1 µM)
Outline: as §1

Cell Line: NCI-H23
- relative viability (Wnt-C59 + OSI-027; first compound 0.001 µM): 0.634
- relative viability (Wnt-C59 + OSI-027; first compound 0.01 µM): 0.499
- relative viability (Wnt-C59 + OSI-027; first compound 0.03162 µM): 0.781
- relative viability (Wnt-C59 + OSI-027; first compound 0.1 µM): 0.578
- relative viability (Lapatinib + Palbociclib; first compound 0.2 µM): 0.488
- relative viability (Lapatinib + Palbociclib; first compound 0.6325 µM): 0.512
- relative viability (Lapatinib + Palbociclib; first compound 2 µM): 0.457
- relative viability (Wnt-C59 + Linsitinib; first compound 0.001 µM): 0.719
- relative viability (Wnt-C59 + Linsitinib; first compound 0.01 µM): 0.518
- relative viability (Wnt-C59 + Linsitinib; first compound 0.03162 µM): 0.579
- relative viability (Wnt-C59 + Linsitinib; first compound 0.1 µM): 0.483
- relative viability (Lapatinib + Linsitinib; first compound 0.2 µM): 0.508
- relative viability (Lapatinib + Linsitinib; first compound 0.6325 µM): 0.588
- relative viability (Lapatinib + Linsitinib; first compound 2 µM): 0.462

Cell Line: NCI-H322M
- relative viability (Wnt-C59 + OSI-027; first compound 0.001 µM): 0.53
- relative viability (Wnt-C59 + OSI-027; first compound 0.01 µM): 0.498
- relative viability (Wnt-C59 + OSI-027; first compound 0.03162 µM): 0.442
- relative viability (Wnt-C59 + OSI-027; first compound 0.1 µM): 0.399
- relative viability (Lapatinib + Palbociclib; first compound 0.02 µM): 0.464
- relative viability (Lapatinib + Palbociclib; first compound 0.06325 µM): 0.432
- relative viability (Lapatinib + Palbociclib; first compound 0.2 µM): 0.455
- relative viability (Lapatinib + Palbociclib; first compound 0.6325 µM): 0.446
- relative viability (Lapatinib + Palbociclib; first compound 2 µM): 0.434
- relative viability (Wnt-C59 + Linsitinib; first compound 0.001 µM): 1.07
- relative viability (Wnt-C59 + Linsitinib; first compound 0.01 µM): 0.775
- relative viability (Wnt-C59 + Linsitinib; first compound 0.03162 µM): 0.758
- relative viability (Wnt-C59 + Linsitinib; first compound 0.1 µM): 0.685
- relative viability (Lapatinib + Linsitinib; first compound 0.02 µM): 0.931
- relative viability (Lapatinib + Linsitinib; first compound 0.06325 µM): 0.839
- relative viability (Lapatinib + Linsitinib; first compound 0.2 µM): 0.803
- relative viability (Lapatinib + Linsitinib; first compound 0.6325 µM): 0.767
- relative viability (Lapatinib + Linsitinib; first compound 2 µM): 0.592

Cell Line: NCI-H358
- relative viability (Wnt-C59 + OSI-027; first compound 0.001 µM): 0.838
- relative viability (Wnt-C59 + OSI-027; first compound 0.01 µM): 0.769
- relative viability (Wnt-C59 + OSI-027; first compound 0.03162 µM): 0.908
- relative viability (Wnt-C59 + OSI-027; first compound 0.1 µM): 0.767
- relative viability (Lapatinib + Palbociclib; first compound 0.02 µM): 0.16
- relative viability (Lapatinib + Palbociclib; first compound 0.06325 µM): 0.124
- relative viability (Lapatinib + Palbociclib; first compound 0.2 µM): 0.13
- relative viability (Lapatinib + Palbociclib; first compound 0.6325 µM): 0.132
- relative viability (Lapatinib + Palbociclib; first compound 2 µM): 0.104
- relative viability (Wnt-C59 + Linsitinib; first compound 0.001 µM): 0.83
- relative viability (Wnt-C59 + Linsitinib; first compound 0.01 µM): 0.641
- relative viability (Wnt-C59 + Linsitinib; first compound 0.03162 µM): 0.923
- relative viability (Wnt-C59 + Linsitinib; first compound 0.1 µM): 0.682
- relative viability (Lapatinib + Linsitinib; first compound 0.02 µM): 0.548
- relative viability (Lapatinib + Linsitinib; first compound 0.2 µM): 0.512
- relative viability (Lapatinib + Linsitinib; first compound 0.6325 µM): 0.329
- relative viability (Lapatinib + Linsitinib; first compound 2 µM): 0.277

Cell Line: NCI-H522
- relative viability (Wnt-C59 + OSI-027; first compound 0.001 µM): 0.683
- relative viability (Wnt-C59 + OSI-027; first compound 0.01 µM): 0.654
- relative viability (Wnt-C59 + OSI-027; first compound 0.03162 µM): 0.742
- relative viability (Wnt-C59 + OSI-027; first compound 0.1 µM): 0.784
- relative viability (Lapatinib + Palbociclib; first compound 0.06325 µM): 0.749
- relative viability (Lapatinib + Palbociclib; first compound 0.2 µM): 0.954
- relative viability (Lapatinib + Palbociclib; first compound 0.6325 µM): 1.02
- relative viability (Lapatinib + Palbociclib; first compound 2 µM): 0.777

Cell Line: NCI-H596
- relative viability (Wnt-C59 + OSI-027; first compound 0.001 µM): 0.733
- relative viability (Wnt-C59 + OSI-027; first compound 0.01 µM): 0.499
- relative viability (Wnt-C59 + OSI-027; first compound 0.03162 µM): 0.952
- relative viability (Wnt-C59 + OSI-027; first compound 0.1 µM): 0.719
- relative viability (Wnt-C59 + Linsitinib; first compound 0.001 µM): 1.04
- relative viability (Wnt-C59 + Linsitinib; first compound 0.01 µM): 0.954
- relative viability (Wnt-C59 + Linsitinib; first compound 0.03162 µM): 1.16
- relative viability (Wnt-C59 + Linsitinib; first compound 0.1 µM): 1.1
- relative viability (Lapatinib + Linsitinib; first compound 0.02 µM): 1.11
- relative viability (Lapatinib + Linsitinib; first compound 0.06325 µM): 1.02
- relative viability (Lapatinib + Linsitinib; first compound 0.2 µM): 1.09
- relative viability (Lapatinib + Linsitinib; first compound 0.6325 µM): 1.19
- relative viability (Lapatinib + Linsitinib; first compound 2 µM): 0.839

Cell Line: NCI-H1299
- relative viability (Wnt-C59 + Linsitinib; first compound 0.001 µM): 0.965
- relative viability (Wnt-C59 + Linsitinib; first compound 0.01 µM): 1.07
- relative viability (Wnt-C59 + Linsitinib; first compound 0.03162 µM): 0.961
- relative viability (Wnt-C59 + Linsitinib; first compound 0.1 µM): 1
- relative viability (Lapatinib + Linsitinib; first compound 0.02 µM): 0.973
- relative viability (Lapatinib + Linsitinib; first compound 0.06325 µM): 0.923
- relative viability (Lapatinib + Linsitinib; first compound 0.2 µM): 0.98
- relative viability (Lapatinib + Linsitinib; first compound 0.6325 µM): 1
- relative viability (Lapatinib + Linsitinib; first compound 2 µM): 1.05

Cell Line: NCI-H1563
- relative viability (Wnt-C59 + OSI-027; first compound 0.001 µM): 0.711
- relative viability (Wnt-C59 + OSI-027; first compound 0.01 µM): 0.784
- relative viability (Wnt-C59 + OSI-027; first compound 0.03162 µM): 0.761
- relative viability (Wnt-C59 + OSI-027; first compound 0.1 µM): 0.728
- relative viability (Wnt-C59 + Linsitinib; first compound 0.001 µM): 1.24
- relative viability (Wnt-C59 + Linsitinib; first compound 0.01 µM): 1.2
- relative viability (Wnt-C59 + Linsitinib; first compound 0.03162 µM): 1.34
- relative viability (Wnt-C59 + Linsitinib; first compound 0.1 µM): 1.13
- relative viability (Lapatinib + Linsitinib; first compound 0.02 µM): 1.12
- relative viability (Lapatinib + Linsitinib; first compound 0.06325 µM): 1.13
- relative viability (Lapatinib + Linsitinib; first compound 0.2 µM): 1.03
- relative viability (Lapatinib + Linsitinib; first compound 0.6325 µM): 1.2
- relative viability (Lapatinib + Linsitinib; first compound 2 µM): 1.12

Cell Line: NCI-H1623
- relative viability (Wnt-C59 + OSI-027; first compound 0.001 µM): 0.429
- relative viability (Wnt-C59 + OSI-027; first compound 0.01 µM): 0.383
- relative viability (Wnt-C59 + OSI-027; first compound 0.03162 µM): 0.416
- relative viability (Wnt-C59 + OSI-027; first compound 0.1 µM): 0.453

Cell Line: NCI-H1648
- relative viability (Wnt-C59 + OSI-027; first compound 0.001 µM): 0.292
- relative viability (Wnt-C59 + OSI-027; first compound 0.01 µM): 0.285
- relative viability (Wnt-C59 + OSI-027; first compound 0.03162 µM): 0.292
- relative viability (Wnt-C59 + OSI-027; first compound 0.1 µM): 0.246
- relative viability (Lapatinib + Palbociclib; first compound 0.06325 µM): 0.222
- relative viability (Lapatinib + Palbociclib; first compound 0.2 µM): 0.294
- relative viability (Lapatinib + Palbociclib; first compound 0.6325 µM): 0.285
- relative viability (Lapatinib + Palbociclib; first compound 2 µM): 0.252

Cell Line: NCI-H1650
- relative viability (Wnt-C59 + OSI-027; first compound 0.001 µM): 0.756
- relative viability (Wnt-C59 + OSI-027; first compound 0.01 µM): 0.569
- relative viability (Wnt-C59 + OSI-027; first compound 0.03162 µM): 0.645
- relative viability (Wnt-C59 + OSI-027; first compound 0.1 µM): 0.647
- relative viability (Lapatinib + Palbociclib; first compound 0.02 µM): 0.315
- relative viability (Lapatinib + Palbociclib; first compound 0.06325 µM): 0.314
- relative viability (Lapatinib + Palbociclib; first compound 0.2 µM): 0.379
- relative viability (Lapatinib + Palbociclib; first compound 0.6325 µM): 0.3
- relative viability (Lapatinib + Palbociclib; first compound 2 µM): 0.299

Cell Line: NCI-H1703
- relative viability (Wnt-C59 + Linsitinib; first compound 0.001 µM): 0.721
- relative viability (Wnt-C59 + Linsitinib; first compound 0.01 µM): 0.631
- relative viability (Wnt-C59 + Linsitinib; first compound 0.03162 µM): 0.739
- relative viability (Wnt-C59 + Linsitinib; first compound 0.1 µM): 0.899
- relative viability (Lapatinib + Linsitinib; first compound 0.02 µM): 0.695
- relative viability (Lapatinib + Linsitinib; first compound 0.06325 µM): 0.642
- relative viability (Lapatinib + Linsitinib; first compound 0.2 µM): 0.888
- relative viability (Lapatinib + Linsitinib; first compound 0.6325 µM): 0.512
- relative viability (Lapatinib + Linsitinib; first compound 2 µM): 0.662

Cell Line: NCI-H2170
- relative viability (Wnt-C59 + OSI-027; first compound 0.001 µM): 0.748
- relative viability (Wnt-C59 + OSI-027; first compound 0.01 µM): 0.468
- relative viability (Wnt-C59 + OSI-027; first compound 0.03162 µM): 0.872
- relative viability (Wnt-C59 + OSI-027; first compound 0.1 µM): 0.491
- relative viability (Lapatinib + Palbociclib; first compound 0.02 µM): 0.376
- relative viability (Lapatinib + Palbociclib; first compound 0.06325 µM): 0.313
- relative viability (Lapatinib + Palbociclib; first compound 0.2 µM): 0.271
- relative viability (Lapatinib + Palbociclib; first compound 0.6325 µM): 0.277
- relative viability (Lapatinib + Palbociclib; first compound 2 µM): 0.136

Cell Line: NCI-H2342
- relative viability (Wnt-C59 + OSI-027; first compound 0.001 µM): 0.57
- relative viability (Wnt-C59 + OSI-027; first compound 0.01 µM): 0.527
- relative viability (Wnt-C59 + OSI-027; first compound 0.03162 µM): 0.646
- relative viability (Wnt-C59 + OSI-027; first compound 0.1 µM): 0.613
- relative viability (Lapatinib + Palbociclib; first compound 0.02 µM): 0.504
- relative viability (Lapatinib + Palbociclib; first compound 0.06325 µM): 0.491
- relative viability (Lapatinib + Palbociclib; first compound 0.2 µM): 0.501
- relative viability (Lapatinib + Palbociclib; first compound 0.6325 µM): 0.553
- relative viability (Lapatinib + Palbociclib; first compound 2 µM): 0.484

Cell Line: SW 900
- relative viability (Wnt-C59 + OSI-027; first compound 0.001 µM): 0.585
- relative viability (Wnt-C59 + OSI-027; first compound 0.01 µM): 0.54
- relative viability (Wnt-C59 + OSI-027; first compound 0.03162 µM): 0.457
- relative viability (Wnt-C59 + OSI-027; first compound 0.1 µM): 0.554
- relative viability (Lapatinib + Palbociclib; first compound 0.06325 µM): 0.514
- relative viability (Lapatinib + Palbociclib; first compound 0.2 µM): 0.554
- relative viability (Lapatinib + Palbociclib; first compound 0.6325 µM): 0.586
- relative viability (Lapatinib + Palbociclib; first compound 2 µM): 0.43
